Source: EP0518675A2, “Cyclic renin inhibitors” (MERCK & CO. INC., priority 1991, dated 1992)
Square brackets hold non-standard residues; d marks the D form. Peptide text beside a SMILES is read from it. * marks the point of attachment. Sta = CC(C)C[C@H](N)[C@@H](O)CC(=O)O; Isovaleryl = CC(C)CC(=O)*

Tests used:
[1] = system: human plasma renin; assay: human plasma renin IC50 determination at pH 7.4; assay type: biochemical; conditions: against human plasma renin
Procedure: The following method was used for in vitro evaluation of the renin inhibitors of Formula I: The human plasma renin IC50 values for inhibitors of Formula I were determined at pH 7.4 following the procedure described in J. Boger, L.S. Payne, D.S. Perlow, N.S. Lohr, M. Poe, E.H. Blaine, E. H. Elm, T.W. Schorn, B.I. Lamont, T.-Y. Lin, M. Kawai, D.H. Rich and D.F. Veber, J. Med. Chem., 28, 1779 (1985).

[2] = system: conscious sodium-deficient Rhesus monkeys; assay: intravenous evaluation of renin inhibitors in conscious sodium-deficient Rhesus monkeys (blood pressure lowering); assay type: in vivo; conditions: i.v. bolus injection, mean arterial pressure
Source text: The following methods were used for in vivo evaluation of the renin inhibitors of Formua I: Intravenous evaluation of renin inhibitors in conscious sodium-deficient Rhesus monkeys: Rhesus monkeys, male and female, weighing 2.6 - 4.5 Kg, were surgically prepared with chronic arterial and venous catheters and vascular access ports for direct monitoring of mean arterial pressure (MAPI) and heart rate (HR). The animals were maintained on a low sodium diet (1.2 mmol Na/day) plus fruit for a week, and administered LASIX (furosemide) at2.5 mg/Kg, intramuscularly the evening prior to the experiment. The animals had been trained to sit quietly in the chairs with water AD LIBIUM for the duration of the experiment. The inhibitors were administered by bolus injection using 0.5% acetic acid-5% dextrose in water as the vehicle (0.4 ml/Kg), and MAP and HRwere measured. Blood samples were withdrawn at different time intervals beginning at the nadir of hypotensive response. PRA was determined as described above. […] A projected ED50 dose for each inhibitor was calculated using the following formula: ED50 (Test Inhibitor, umoles/Kg) = ED50 (SCRIP) X [IC50 (Test Inhibitor)/IC50 (SCRIP)], where the IC50 values were determined against human plasma renin. […] Percent inhibition of monkey PRA, changes in MAP and HR were calculated and plotted against time. […]

CC(C)CC(=O)N[C@@H](Cc1c[nH]cn1)C(=O)N1CCC[C@H]1C(=O)N[C@@H](Cc1ccccc1)C(=O)N[C@@H](Cc1c[nH]cn1)C(=O)N[C@@H](CC(C)C)[C@@H](O)CC(=O)N[C@@H](CC(C)C)C(=O)N[C@@H](Cc1ccccc1)C(N)=O [SCRIP, Iva-His-Pro-Phe-His-Sta-Leu-Phe-NH2] (Isovaleryl-HPFH[Sta]LF-NH2)
IC50 [1]: 3.7 nM
i.v. dose of the standard inhibitor required to lower blood pressure by 50% of the maximal response (ED50) [2]: 0.039 µmol/kg
